Patent US20180344702A1, “METHODS FOR TREATING PATIENTS WITH HEMATOLOGIC MALIGNANCIES” (Aptose Biosciences, Inc., priority 2017, published 2018)
Several values for one entry are separate records, joined by “and”; a condition that tells them apart may be missing. Equal entries are not always repeated.

Assays:
EGFR = EGFR (Homo sapiens, UniProt P00533); test: Key off-targets (Table 8); type: biochemical
EOL-1 = test: Cytotoxicity in high serum conditions (MTS); type: cell-based; settings: EOL-1, 72 hours, 10% vs 30%, 50%, 80% FBS
Description: Compound 7 was tested in a dose-dependent manner at different serum concentrations. […] In this experiment, MV4-11 (n=6) and EOL-1(n=3˜6) cells were treated with or without Compound 7 for 72 hours in medium containing normal (10%) or high serum (30%, 50%, 80%) FBS with an MTS assay serving as an end point.

FLT3(K663Q) = target: T1, FLT3(K663Q) (Homo sapiens, UniProt P36888, K663Q); test: Binding constant (Kd), competition binding with qPCR readout
T1 construct: made in house; host or cells: E. coli BL21-derived host (T7 phage) or HEK-293

MDS/MPN patient samples = test: Ex vivo assay for patient sensitivity (MTS, 3-day culture); type: cell-based, human; settings: N evaluated 15
Description: (§1) 85 Patients with a diagnosis of acute myeloid leukemia (AML), 15 patients with myelodysplastic syndrome/myeloproliferative neoplasms (MDS/MPN), 18 patients with acute lymphoblastic leukemia (ALL), and 56 patients with chronic lymphocytic leukemia (CLL) were evaluated for sensitivity to the multi-kinase inhibitor, Compound 7, using an ex vivo assay. Sensitivity to Compound 7 was evaluated across a concentration range from 10 nM to 10 μM. Cell viability was assessed using a colorimetric, tetrazolium-based MTS assay after a 3-day culture period, and IC50 values were calculated as a measure of drug sensitivity.

CLL patient samples = test: as above; type: cell-based, human; settings: N evaluated 56
Description: as §1

ALL patient samples = test: as above; type: cell-based, human; settings: N evaluated 18
Description: as §1

AML patient samples = test: as above; type: cell-based, human; settings: N evaluated 85, 10 nM to 10 μM
Description: as §1

FLT3(D835Y) = target: T2, FLT3(D835Y) (Homo sapiens, UniProt P36888, D835Y); test: Binding constant (Kd), competition binding with qPCR readout
T2 construct: made in house; host or cells: E. coli BL21-derived host (T7 phage) or HEK-293

[1] = tested on: various heme cell lines (MV4-11, NOMO-1, and KG-1 cells); test: Polyploidy, EdU and PI staining with FACS; type: cell-based; settings: 24 hours, increasing concentrations
Description: MV4-11, NOMO-1, and KG-1 cells were treated at increasing concentrations of Compound 7 for 24 hours, and the increase in DNA content or polploidy phenotype was assessed using EdU and PI staining followed by FACS analysis using the BD Accuri C6 flow.

[2] = tested on: Aurora kinase in FLT3 WT cells (KG-1); test: Cell signaling Western blot; type: cell-based; settings: KG-1 cells, FIGS. 25A-25B
Description: (§2) Immunoblot assays: Cells were treated with Compound 7 at various concentrations and collected for cell lysates. The total and phosphorylated levels of the indicated proteins were determined by Western Blot.

[3] = tested on: PDGFRA and FLT3 (WT) signaling in EOL-1 cells; test: Cell signaling Western blot; type: cell-based
Description: as §2

Ramos = test: Polyploidy in B-cell lines (Edu and PI staining, FACS); type: cell-based; settings: 5 nM
Description: Further mechanistic studies were undertaken to fully elucidate Compound 7's potent cytotoxicity. B-cell lines were treated with vehicle or Compound 7 for 24-72 hours and the increase in DNA content or polyploidy phenotype was assessed using Edu and PI staining followed by FACS analysis using the BD Accuri C6 flow cytometer.
Mino and Ramos cell lines were treated with increasing concentrations of.

Ba/F3-D835G (FLT3-D835G) = test: Antiproliferative activity (Table 6); type: cell-based, Murin; settings: 72 h
[4] = tested on: BTK pathway in EOL-1 cells; test: Western blot analysis in EOL-1 cells; type: cell-based; settings: 0.5, 5.0, and 50 nM, FIG. 3
Description: as §2

MV411 cells = test: Cell-cycle analysis (EdU/PI flow cytometry); type: cell-based, human; settings: dose-dependent
Description: (§3) Cell-cycle analysis: Cells were treated with vehicle, DMSO or Compound 7 and were stained with PI and EdU, and then analyzed by flow cytometry to determine the phases of cell cycle.

FLT3(D835V) = target: T3, FLT3(D835V) (Homo sapiens, UniProt P36888, D835V); test: Binding constant (Kd), competition binding with qPCR readout
T3 construct: made in house; host or cells: E. coli BL21-derived host (T7 phage) or HEK-293
Description: (§4) Measurements of said kinase activity are referred to as binding constants or Kd values. The protocol for obtaining these values is hereby described. For most assays, kinase-tagged T7 phage strains were prepared in an E. coli host derived from the BL21 strain. E. coli were grown to log-phase and infected with T7 phage and incubated with shaking at 32° C. until lysis. The lysates were centrifuged and filtered to remove cell debris. The remaining kinases were produced in HEK-293 cells and subsequently tagged with DNA for qPCR detection. […] The liganded beads were blocked with excess biotin and washed with blocking buffer (SeaBlock (Pierce), 1% BSA, 0.05% Tween 20, 1 mM DTT) to remove unbound ligand and to reduce nonspecific binding. […] Test compounds were prepared as 111× stocks in 100% DMSO. Kds were determined using an 11-point 3-fold compound dilution series with three DMSO control points. […] The compounds were then diluted directly into the assays such that the final concentration of DMSO was 0.9%. All reactions performed in polypropylene 384-well plate. Each was a final volume of 0.02 ml. […] The kinase concentration in the eluates was measured by qPCR.

FLT3(ITD-F691L) = target: T4, FLT3(ITD-F691L) (Homo sapiens, UniProt P36888, F691L, form not given); test: as above
T4 construct: kinase-tagged T7 phage strains were prepared in an E. coli host derived from the BL21 strain; fused on or other part: T7 phage fusion or DNA tag for qPCR detection
Description: as §4

FLT3(R834Q) = target: T5, FLT3(R834Q) (Homo sapiens, UniProt P36888, R834Q); test: as above
T5 construct: made in house; host or cells: E. coli BL21-derived host (T7 phage) or HEK-293
Description: as §4

FLT3(ITD-D835V) = target: T6, FLT3(ITD-D835V) (Homo sapiens, UniProt P36888, D835V, form not given); test: as above
T6 construct: kinase-tagged T7 phage strains were prepared in an E. coli host derived from the BL21 strain; fused on or other part: T7 phage fusion or DNA tag for qPCR detection
Description: as §4

FLT3(WT) = FLT3(WT) (Homo sapiens, UniProt P36888); test: as above
MOLM-13 cells = test: Cell-cycle analysis (flow cytometry); type: cell-based, human; settings: dose-dependent
Description: as §3

Sequence of EGFR (P00533 25-1210): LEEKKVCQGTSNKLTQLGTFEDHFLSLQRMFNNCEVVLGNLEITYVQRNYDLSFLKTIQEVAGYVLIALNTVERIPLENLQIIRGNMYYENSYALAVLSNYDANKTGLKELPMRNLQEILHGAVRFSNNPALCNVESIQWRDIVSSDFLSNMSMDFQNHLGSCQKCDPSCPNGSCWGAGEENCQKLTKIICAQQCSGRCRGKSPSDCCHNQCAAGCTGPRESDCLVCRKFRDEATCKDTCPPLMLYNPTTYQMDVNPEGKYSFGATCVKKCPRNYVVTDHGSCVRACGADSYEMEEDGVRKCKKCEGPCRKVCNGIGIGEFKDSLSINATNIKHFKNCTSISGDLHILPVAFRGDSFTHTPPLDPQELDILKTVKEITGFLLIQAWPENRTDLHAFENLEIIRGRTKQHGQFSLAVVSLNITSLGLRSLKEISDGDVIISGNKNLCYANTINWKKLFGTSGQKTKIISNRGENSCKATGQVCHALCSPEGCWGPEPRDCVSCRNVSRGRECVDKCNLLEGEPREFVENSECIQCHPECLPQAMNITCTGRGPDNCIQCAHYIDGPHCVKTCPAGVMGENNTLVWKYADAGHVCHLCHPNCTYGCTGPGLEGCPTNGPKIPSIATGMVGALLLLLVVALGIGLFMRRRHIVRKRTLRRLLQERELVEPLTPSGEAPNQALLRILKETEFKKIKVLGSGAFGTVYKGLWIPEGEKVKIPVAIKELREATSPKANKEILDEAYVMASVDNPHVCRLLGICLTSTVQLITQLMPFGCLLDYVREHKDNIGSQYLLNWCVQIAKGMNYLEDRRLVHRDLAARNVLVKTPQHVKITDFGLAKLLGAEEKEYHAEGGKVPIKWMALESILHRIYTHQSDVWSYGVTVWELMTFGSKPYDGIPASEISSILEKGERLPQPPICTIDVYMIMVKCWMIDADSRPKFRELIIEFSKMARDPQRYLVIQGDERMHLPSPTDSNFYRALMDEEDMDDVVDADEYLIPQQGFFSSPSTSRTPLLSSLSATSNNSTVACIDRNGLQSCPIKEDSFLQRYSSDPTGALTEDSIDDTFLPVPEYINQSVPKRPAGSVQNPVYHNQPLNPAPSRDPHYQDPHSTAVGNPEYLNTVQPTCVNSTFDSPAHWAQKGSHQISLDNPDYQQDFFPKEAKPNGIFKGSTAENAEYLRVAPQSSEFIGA

Cc1cnc(-c2ccc(-c3ccc(NC(=O)Nc4c(F)cc(F)cc4F)cc3F)c3c2C(=O)NC3)[nH]1 [Compound 7, 1-{3-fluoro-4-[7-(5-methyl-1H-imidazol-2-yl)-1-oxo-2,3-dihydro-1H-isoindol-4-yl]-phenyl}-3-(2,4,6-trifluorophenyl)urea]
IC50 (EGFR): > 1000 nM | Inhibition of EGFR (in words) (EGFR): no inhibition | Activity at high serum concentration (EOL-1): retains high activity at high serum concentration | Kd (FLT3(K663Q)): 0.55 nM | % samples with IC50 < 0.1 μM (MDS/MPN patient samples): 53 (8/15) % | % samples with IC50 < 0.1 μM (CLL patient samples): 41 (23/56) % | % samples with IC50 < 0.1 μM (ALL patient samples): 61 (11/18) % | % samples with IC50 < 0.1 μM (AML patient samples): 60% and 60 (51/85) % | Kd (FLT3(D835Y)): 4.2 nM | Polyploidies [1]: induce polyploidies | Aurora kinase activity and signaling (Western blot) [2]: inhibits Aurora kinase activity and signaling | PDGFRA and FLT3 (WT) signaling (Western blot) [3]: inhibits PDGFRA and FLT3 (WT) signaling | Polyploidy (>4n) followed by apoptosis (Ramos): effectively induced polyploidy (>4n) followed by apoptosis | IC50 (Ba/F3-D835G (FLT3-D835G)): 0.12 nM | Inhibition of BTK pathway (Western blot) [4]: inhibits BTK pathway | G0/G1 cell-cycle arrest (MV411 cells): induce G0/G1 cell-cycle arrest | Kd (FLT3(D835V)): 7.9 nM | Kd (FLT3(ITD-F691L)): 15 nM | Kd (FLT3(R834Q)): 6.4 nM | Kd (FLT3(ITD-D835V)): 1700 nM | Kd (FLT3(WT)): 0.24 nM | G0/G1 cell-cycle arrest (MOLM-13 cells): induce G0/G1 cell-cycle arrest
